We go through 17 compounds from patent US11111232B2, “Substituted cyclobutylpyridine and cyclobutylpyrimidine compounds as indoleamine 2,3-dioxygenase (IDO) inhibitors” (MERCK SHARP & DOHME CORP., priority 2017, dated 2021).

Each structure is given as a SMILES string. pIC50: −log10 of the molar value.

Holding throughout (format): cell-based
The target of test [1] is T1, IDO1 (Homo sapiens, UniProt P14902). Kind of test: IDO1 cellular assay in Hela cells stimulated with IFNγ. To be noted: IFNγ 100 ng/mL, 300 uM L-tryptophan, about 48 hours, fluorescence readout. The method, then:
IDO1 Cellular Assay in Hela Cells Stimulated with IFNγ
Hela cells were cultured in complete Hela culture medium (90% EMEM, 10% heat-inactivated fetal bovine serum) and expanded to about 1×10^9 cells. The cells were then collected and frozen down at 1×10^7 cells/vial in 1 mL frozen medium (90% complete Hela culture medium, 10% DMSO)
Compounds to be tested were serially diluted in ten 3-fold steps in DMSO starting from 10 mM DMSO stocks in Echo low volume plate(s).
Frozen Hela cells were thawed and transferred into Hela assay medium (99% complete Hela culture medium, 1% Pen/Strep) with 20 mL medium/vial of cells. The cells were spun down at 250 g in a table top centrifuge for 5 min and suspended in same volume of Hela assay medium. […] Sterile L-tryptophan were added to the cells with final concentration of 300 uM L-tryptophan. A small aliquot (2 mL/plate) of Hela cells were set aside and were not treated with IFNγ, to serve as the Max-E control.
Hela cells with and without IFNγ were dispensed to the respective wells of 384-well assay plates containing the compounds. The plates were incubated for about 48 hours at a 37° C., 5% CO2 incubator. Afterwards, […] of 0.5 M methyl isonipecotate in dimethyl sulfoxide were added into each well and the plates were sealed and incubated at 37° C. without CO2 overnight. The plates were centrifuged for 1 min at 200×g. The resulting fluorescence was measured in a Spectramax plate reader (Molecular Devices) with a 400 nm excitation filter and a 510 nm emission filter.
Potencies were calculated by linear least squares fit to the four parameter logistic IC50 equation.

The next test concerns the target T2, TDO (Homo sapiens, UniProt P48775).
T2 construct: endogenous in cells; host or cells: SW48 cells (A2780 cells as low-TDO control)
Briefly: TDO cellular assay in frozen SW48 cells. The following applies: 300 uM L-tryptophan, about 48 hours, fluorescence readout. The method, then: TDO Cellular Assay in Frozen SW48 Cells
SW48 cells were cultured in complete RPMI culture medium (90% RPMI, 10% heat-inactivated fetal bovine serum).
Compounds to be tested were serially diluted in ten 3-fold steps in DMSO starting from 10 mM DMSO stocks in Echo low volume plate(s). […] The cells were spun down at 350 g in a table top centrifuge for 5 minutes and suspended in same volume of RPMI assay medium. […] Sterile L-tryptophan (Sigma, Cat #T0254) was added to the cells with final concentration of 300 uM.
SW48 and A2780 cells were dispensed to the respective wells of 384-well assay plates containing the compounds. The plates were incubated for about 48 hours at a 37° C., 5% CO2 incubator. Afterwards, 12 μL of 0.5 M ethyl isonipecotate (Sigma Aldrich, Cat #E33505) in dimethyl sulfoxide were added into each well and the plates were sealed and incubated at 37° C. without CO2 overnight. The plates were centrifuged for 1 minute at 200×g. The resulting fluorescence was measured in a Spectramax plate reader (Molecular Devices) with a 400 nm excitation filter and a 510 nm emission filter.
The fluorescence intensity of each well was corrected for the background observed in wells with A2780 cells and was expressed as a fraction of the intensity observed in wells of SW48 cells and DMSO only. Potencies were calculated by linear least squares fit to the four parameter logistic IC50 equation.

Test [2] has as its target T1, IDO1. Kind of test: IDO1 human whole blood assay. More on the design: Human whole blood was drawn in sodium heparin coated tubes from healthy internal donors; from tissue; host or cells: human whole blood from healthy donors, stimulated with LPS and IFNγ. To be noted: LPS and IFNγ 100 ng/mL, 18 h, kynurenine by LC/MS/MS. On the procedure:
IDO1Human Whole Blood Assay
Compounds to be tested were serially diluted in ten 3-fold steps in DMSO starting from 10 mM. […] LPS and IFNγ was prepared in RPMI to a 10× of final conc. (1000 ng/mL), final concentration is 100 ng/mL.
Human whole blood was drawn in sodium heparin coated tubes from healthy internal donors. […] of blood was transferred to each of the wells of a v-bottom 96 well plate. […] of compound was transferred from intermediate dilution plate, and incubated for 15 min. 30 μL from stimulants was then transferred to blood and mixed thoroughly. Plate was covered with breathable membrane and incubated at 37° C. for overnight (18 h).
On day 2 isotope labeled standard of kynurenine and tryptophan was made in water at 10× concentration and […] was added to the blood at […] final concentration. The assay plates were centrifuged at 300×G for 10 min with no brake to separate plasma from red blood cells. […] of plasma samples was removed without disturbing red blood cells. Plasma was diluted with RPMI in 1:1 ratio and proteins were precipitated out with two volume of Acetonitrile. The plates was centrifuged at 4000×G for 60 min. 20 mL of supernatant was carefully transferred to a 384 well plate contain 40 mL of 0.1% formic acid in water and analyzed by LC/MS/MS.
LC/MS/MS analyses were performed using Thermo Fisher's LX4-TSQ Quantum Ultra system. This system consists of four Agilent binary high-performance liquid chromatography (HPLC) pumps and a TSQ Quantum Ultra triple quadruple MS/MS instrument. For each sample, […] were injected onto an Atlantis T3 column (2.1 mm×150 mm, […]) from Waters. The mobile phase gradient pumped at 0.8 mL/min was used to elute the analytes from the column at 25° C. […] Mobile phase A consisted of 0.1% formic acid in water. Mobile phase B consisted of 0.1% of formic acid in acetonitrile. Data was acquired in positive mode using a HESI interface. The operational parameters for the TSQ Quantum Ultra instrument were a spray voltage of 4000 V, capillary temperature of 380° C., vaporizer temperature 400° C., shealth gas 60 arbitrary units, Aux gas 20 arbitrary units, tube lens 85 and collision gas 1.2 mTorr. […] The peak area was integrated by Xcalibur Quan software. The ratios between the kynurenine generated in the reaction and 2D6-Kynurenine spiked-in internal standard were used to generate percentage inhibition and IC50 values. Compounds were titrated and IC50′s were calculated by 4 parameter sigmoidal curve fitting formula.

T2 sequence (P48775 whole entry): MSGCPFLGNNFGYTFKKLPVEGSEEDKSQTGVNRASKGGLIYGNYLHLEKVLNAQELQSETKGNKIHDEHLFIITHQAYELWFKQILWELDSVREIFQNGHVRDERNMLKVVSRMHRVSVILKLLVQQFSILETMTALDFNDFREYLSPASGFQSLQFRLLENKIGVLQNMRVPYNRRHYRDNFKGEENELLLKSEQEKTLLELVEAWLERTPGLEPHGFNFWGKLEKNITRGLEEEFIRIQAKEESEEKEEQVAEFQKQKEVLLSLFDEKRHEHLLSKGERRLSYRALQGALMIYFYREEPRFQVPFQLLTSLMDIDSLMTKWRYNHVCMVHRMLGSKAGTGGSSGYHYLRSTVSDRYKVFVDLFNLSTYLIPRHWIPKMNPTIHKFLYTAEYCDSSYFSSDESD
T1 sequence (P14902 whole entry): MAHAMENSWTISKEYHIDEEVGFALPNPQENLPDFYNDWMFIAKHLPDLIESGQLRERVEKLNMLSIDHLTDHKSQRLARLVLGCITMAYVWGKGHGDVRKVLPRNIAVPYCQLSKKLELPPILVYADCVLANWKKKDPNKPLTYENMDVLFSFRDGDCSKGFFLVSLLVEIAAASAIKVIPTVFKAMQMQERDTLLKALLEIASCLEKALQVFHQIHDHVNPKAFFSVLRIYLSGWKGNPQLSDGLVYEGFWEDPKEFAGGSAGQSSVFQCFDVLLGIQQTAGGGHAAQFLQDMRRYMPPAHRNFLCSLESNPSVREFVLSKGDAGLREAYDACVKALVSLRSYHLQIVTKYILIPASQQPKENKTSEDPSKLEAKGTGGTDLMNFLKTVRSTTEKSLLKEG

Usually pIC50 stands for the IC50 on a negative log10 scale, so that one unit is a factor of ten. Turning to `O=C(Nc1ccc(C2(C(=O)Nc3ccc(F)cn3)CCC2)nc1)c1cccc(Cl)c1` [Example 37, 3-chloro-N-(6-{1-[(5-fluoropyridin-2-yl)carbamoyl]cyclobutyl}pyridin-3-yl)benzamide], the pIC50 at IDO1 [1] was 7.82; against TDO, at most 5.00; on IDO1 [2], 5.75.

Regarding `O=C(Nc1ccc(C2(C(=O)Nc3ccc(F)cc3)CCC2)cn1)c1cccc(Cl)c1F` [Example 14, 3-chloro-2-fluoro-N-(5-{1-[(4-fluorophenyl)carbamoyl]cyclobutyl}pyridin-2-yl)benzamide], the pIC50 is 5.68 against IDO1 [1], at most 5.00 at TDO and 6.80 on IDO1 [2].

As for `O=C(Nc1ccc(C2(C(=O)Nc3ccc(F)cc3)CCC2)nc1CO)c1cccc(Cl)c1` [Example 55, 3-Chloro-N-(6-(1-((4-fluorophenyl)carbamoyl)cyclobutyl)-2-(hydroxymethyl)pyridin-3-yl)benzamide], the figures for the pIC50 at IDO1 [1] and on IDO1 [2] were 8.70 and 8.05, respectively.

Consider `O=C(Nc1ccc(C2(C(=O)Nc3ccc(F)cc3)CCC2)cn1)c1cncc(Cl)c1` [Example 25, 5-chloro-N-(5-{1-[(4-fluorophenyl)carbamoyl]cyclobutyl}pyridin-2-yl)pyridine-3-carboxamide], for which the pIC50 was 7.92 at IDO1 [1], at most 5.00 at TDO and 6.25 against IDO1 [2].

For `O=C(Nc1ccc(C2(C(=O)Nc3ccc(F)cc3)CCC2)nc1)c1cccc(Cl)c1` [Example 36, 3-Chloro-N-(6-(1-((4-fluorophenyl)carbamoyl)cyclobutyl)pyridin-3-yl)benzamide], the figures for the pIC50 on IDO1 [1], at TDO and at IDO1 [2] were 8.52, at most 5.00 and 6.60, respectively.

Consider `O=C(Nc1ccc(C2(C(=O)Nc3ccc(F)cc3)CCC2)cn1)c1cccc(F)c1` [Example 23, 3-Fluoro-N-(5-(1-((4-fluorophenyl)carbamoyl)cyclobutyl)pyridin-2-yl)benzamide], for which the negative logarithm of the IC50 (pIC50) on IDO1 [1] was 8.52; on TDO, at most 5.00; at IDO1 [2], 6.99.

Turning to `O=C(Nc1ccc(C2(NC(=O)c3ccc(Cl)nc3)CCC2)nc1)c1cccc(Cl)c1` [Example 42, 6-chloro-N-(1-{5-[(3-chlorobenzene-1-carbonyl)amino]pyridin-2-yl}cyclobutyl)pyridine-3-carboxamide], the pIC50 against IDO1 [1] was 8.10; against TDO, at most 5.00; against IDO1 [2], 6.16.

`N#Cc1cccc(C(=O)Nc2ccc(C3(C(=O)Nc4ccc(F)cc4)CCC3)cn2)c1` [Example 24, 3-cyano-N-(5-{1-[(4-fluorophenyl)carbamoyl]cyclobutyl}pyridin-2-yl)benzamide]: the pIC50 against IDO1 [1] was 8.10; at TDO, at most 5.00; against IDO1 [2] it was 6.45.

For the compound `O=C(Nc1ccc(C2(C(=O)Nc3ccc(F)cc3)CCC2)cn1)c1ccnc(C(F)(F)F)c1` [Example 29, N-(5-{1-[(4-fluorophenyl)carbamoyl]cyclobutyl}pyridin-2-yl)-2-(trifluoromethyl)pyridine-4-carboxamide], the results for the negative logarithm of the IC50 (pIC50) at IDO1 [1], against TDO and against IDO1 [2] were 7.55, at most 5.00 and 5.54, respectively.

As to `O=C(Nc1ccc(C2(NC(=O)c3ccc(Cl)nc3)CCC2)nc1)c1cc(F)cc(F)c1` [Example 41, 6-chloro-N-(1-{5-[(3,5-difluorobenzene-1-carbonyl)amino]pyridin-2-yl}cyclobutyl)pyridine-3-carboxamide], the pIC50 on IDO1 [1] is 8.05; on TDO, at most 5.00; on IDO1 [2], 6.39.

Regarding `O=C(Nc1ccc(C2(C(=O)Nc3ccc(F)nc3)CCC2)cn1)C1CCCCC1` [Example 7, N-(5-{1-[(6-fluoropyridin-3-yl)carbamoyl]cyclobutyl}pyridin-2-yl) cyclohexanecarboxamide], the figures for the negative logarithm of the IC50 (pIC50) against IDO1 [1], against TDO and on IDO1 [2] were 7.60, at most 5.00 and 5.07, respectively.

With `O=C(Nc1ccc(C2(C(=O)Nc3ccc(F)cc3)CCC2)cn1)C1CCC(F)(F)CC1` [Example 9, 4,4-difluoro-N-(5-{1-[(4-fluorophenyl)carbamoyl]cyclobutyl}pyridin-2-yl)cyclohexane-1-carboxamide], the results for the pIC50 on IDO1 [1] and against TDO were 7.25 and at most 5.00, respectively.

In the case of `O=C(Nc1ccc(C2(NC(=O)c3ccc(Cl)nc3)CCC2)nc1)c1ccnc(C(F)(F)F)c1` [Example 45, 6-chloro-N-[1-(5-{[2-(trifluoromethyl)pyridine-4-carbonyl]amino}pyridin-2-yl)cyclobutyl]pyridine-3-carboxamide], the results for the pIC50 on IDO1 [1] and against TDO were 6.33 and at most 5.00, respectively.

Turning to `CC(C)(C)OC(=O)Nc1ccc(C2(C(=O)Nc3ccc(F)cc3)CCC2)cn1` [Example 19, tert-butyl (5-{1-[(4-fluorophenyl)carbamoyl]cyclobutyl}pyridin-2-yl)carbamate], the pIC50 on IDO1 [1] is 6.99; against TDO it was at most 5.00.

Turning to `CC(C)(C)CCC(=O)Nc1ccc(C2(C(=O)Nc3ccc(F)cc3)CCC2)cn1` [Example 11, 1-{6-[(4,4-dimethylpentanoyl)amino]pyridin-3-yl}-N-(4-fluorophenyl)cyclobutane-1-carboxamide], the pIC50 against IDO1 [1] was 7.02; against TDO, at most 5.00.

On to `N#Cc1cncc(C(=O)Nc2ccc(C3(C(=O)Nc4ccc(F)cc4)CCC3)cn2)c1` [Example 32, 5-cyano-N-(5-{1-[(4-fluorophenyl)carbamoyl]cyclobutyl}pyridin-2-yl)pyridine-3-carboxamide], for which the pIC50 against IDO1 [1] is 6.76; against TDO, at most 5.00.

For `N#C[C@@H]1CCC[C@H](C(=O)Nc2ccc(C3(C(=O)Nc4ccc(F)cc4)CCC3)cn2)C1` [Example 10, (1S,3R)-3-cyano-N-(5-{1-[(4-fluorophenyl)carbamoyl]cyclobutyl}pyridin-2-yl)cyclohexane-1-carboxamide], the negative-log IC50 (pIC50) was 7.17 on IDO1 [1] and at most 5.00 against TDO.
